Structures are written as SMILES.

Series [1] can be described thus: Solubility of organic compound in the ink. Type of series: physicochemical. Particulars: in the ink of Comparative Example 4. The text has this:
Incidentally, values in the table are in mass percent. Pigment, dye, and dispersion resin in the table each show the amount of solid matter.

A short description of series [2]: Octanol/water distribution coefficient (log P value, OECD Test Guideline 107). Type of series: physicochemical. The text has this:
The octanol/water distribution coefficient is a value referred to as a log P value and refers to a value defined in OECD Test Guideline 107. As the log P value is larger, the hydrophobicity is higher. As the log P value is smaller, the hydrophilicity is higher.

For the compound `COC(=O)c1ccc(C(=O)OC)cc1` [dimethyl terephthalate], the solubility result in series [1] is on record as “poor”. This compound returned an octanol/water distribution coefficient in series [2] of 2.25.

(Values after US10894412B2, “Ink jet recording apparatus” (Seiko Epson Corporation, priority 2018, dated 2021).)
